The text below walks through data of ChEMBL document CHEMBL5143721, “Novel Hydroxychalcone-Based Dual Inhibitors of Aldose Reductase and α-Glucosidase as Potential Therapeutic Agents against Diabetes Mellitus and Its Complications” (J Med Chem, 2022).

Series [1] is described as follows: Octanol/buffer distribution coefficient, log D of compound at pH 7.4 incubated for 24 hrs by shake flask based HPLC method. The series is classed as physicochemical.
The nature of series [2]: Inhibition of Saccharomyces cerevisiae Alpha-glucosidase using p-nitrophenyl glucopyranoside as substrate preincubated for 5 mins followed by substrate addition and measured for 30 mins.
In series [3] the test system is Brain. Nature of the series: Antioxidant activity in rat brain homogenate assessed as inhibition of lipid peroxidation by measuring MDA concentration at 50 uM by TBARS assay relative to control. In kind it is functional, tissue-based. Details: scale not given: the % may be the effect or the level left.
Series [4] can be described thus: Antioxidant activity assessed as DPPH radical scavenging activity at 10 uM incubated for 30 mins by DPPH assay relative to control. In kind it is functional. On the technique in general: DPPH is a stable violet radical that fades when it is reduced.
Series [5] in a line: Antioxidant activity assessed as DPPH radical scavenging activity at 50 uM incubated for 30 mins by DPPH assay relative to control. In kind it is functional.
Series [6] is described as follows: Inhibition of Wistar rat kidney ALR1 using sodium D-glucuronate as substrate preincubated for 10 mins in presence of NADPH followed by substrate addition and measured after 4 mins. The series is classed as tissue-based.
The species entered for series [7] is Rattus norvegicus. Nature of the series: Selectivity index, ratio of IC50 for Wistar rat kidney ALR1 to IC50 for Wistar rat lens ALR2.
The nature of series [8]: Antioxidant activity assessed as DPPH radical scavenging activity at 100 uM incubated for 30 mins by DPPH assay relative to control. In kind it is functional.
The nature of series [9]: Inhibition of Wistar rat lens ALR2 using D,L-glyceraldehyde as substrate preincubated for 10 mins in presence of NADPH followed by substrate addition and measured after 4 mins. The series is classed as tissue-based.
In series [10] the test system is Brain. The experiment in a line: Antioxidant activity in rat brain homogenate assessed as inhibition of lipid peroxidation by measuring MDA concentration at 100 uM by TBARS assay relative to control. The series is classed as functional, tissue-based. Also on record: scale not given: the % may be the effect or the level left.
Series [11] can be described thus: In vivo inhibition of ALR2 in STZ-induced diabetic Sprague-Dawley rat model assessed as reduction in ALR2 activity in lens at 80 mg/kg, IG administered once daily for 28 days relative to control. In kind it is functional. Details: scale not given: the % may be the effect or the level left. The following applies: time 28 day.
Series [12] has as its system Rattus norvegicus. Nature of the series: Antidiabetic activity against STZ-induced diabetic Sprague-Dawley rat model assessed as reduction in fasting blood glucose level at 80 mg/kg, IG administered once daily for 28 days. The series is classed as functional. Also on record: scale not given: the % may be the effect or the level left. The following applies: time 28 day.

Series [13] can be described thus: Antioxidant activity assessed as DPPH radical scavenging activity at 5 uM incubated for 30 mins by DPPH assay relative to control. In kind it is functional.
Series [14] relates to Brain. The experiment in a line: Antioxidant activity in rat brain homogenate assessed as inhibition of lipid peroxidation by measuring MDA concentration at 10 uM relative to control. In kind it is functional, tissue-based. Details: scale not given: the % may be the effect or the level left.
A short description of series [15]: Antioxidant activity assessed as DPPH radical scavenging activity at 1 uM incubated for 30 mins by DPPH assay relative to control. The series is classed as functional.
For series [16], the system named is Brain. The experiment in a line: Antioxidant activity in rat brain homogenate assessed as inhibition of lipid peroxidation by measuring MDA concentration at 1 uM by TBARS assay relative to control. Details: scale not given: the % may be the effect or the level left. In kind it is functional, tissue-based.
Series [17] has as its system Brain. Nature of the series: Antioxidant activity in rat brain homogenate assessed as inhibition of lipid peroxidation by measuring MDA concentration at 5 uM by TBARS assay relative to control. Details: scale not given: the % may be the effect or the level left. In kind it is functional, tissue-based.

Molecules are shown by their SMILES.

As for `CC(C)=CCn1c(=O)oc2c(C(=O)/C=C/c3ccc(O)cc3)cccc21`, in series [1], the logD (in general, lipophilicity at a set pH, counting ionised and neutral species) at 24 h was 1.65. The values for the IC50 in [2], in series [6] and in [9] were 41.5 µM, above 100 µM and 0.201 µM, respectively. The Activity with Brain [3] worked out at 27%; in series [4], 7.1%; in [5], 18.3%; in series [8] it was 39.1%; in the series on Brain [10], 38.7%. Further, the Ratio IC50 in the series filed under Rattus norvegicus [7] is above 498.
With `COC(=O)Cn1c(=O)oc2c(C(=O)/C=C/c3ccc(OC)cc3)cccc21`, the IC50 in series [6] and in [9] was above 100 µM in each case.
Consider `O=C(/C=C/c1ccc(O)c(Cl)c1)c1cccc2[nH]c(=O)oc12`, for which the IC50 in series [6] and in series [9] was above 100 µM each time.
`O=C(/C=C/c1cc(F)c(O)c(F)c1)c1cccc2[nH]c(=O)oc12`: the IC50 (in general, the concentration that inhibits the measured activity by half) turned out to be 107 µM in [2], 1.41 µM in series [6] and 0.491 µM in [9]. For the same compound, the Ratio IC50 in the series filed under Rattus norvegicus [7] is 2.87.
In the same order, the values of `O=C(/C=C/c1ccc(O)c(F)c1)c1cccc2[nH]c(=O)oc12` are 105 µM, 3.75 µM, 3.74 µM and 1.19.
On to `CC(/C=C1\SC(=S)N(CC(=O)O)C1=O)=C\c1ccccc1`, for which, in series [1], the logD at 24 h worked out at 0.21. For the same compound, the Activity turned out to be 62.1% in series [11] and 20.9% in the series with Rattus norvegicus [12]. Also, the IC50 in series [6] is 5.29 µM; in [9] it was 0.119 µM. Moreover, the Ratio IC50 in the series listed under Rattus norvegicus [7] turned out to be 44.5.
Compound `CC(C)=CCn1c(=O)oc2c(C(=O)/C=C/c3cc(F)c(O)c(F)c3)cccc21` yielded a logD at 24 h in [1] of 1.13. The IC50 in series [2] was found to be 59.9 µM; in series [6], 4.75 µM; in series [9], 0.097 µM. Moreover, the Activity in the series on Brain [3] amounted to 25.9%; in series [4], 9.1%; in [5], 35%; in series [8] it was 52.9%; in the series with Brain [10], 38.3%. Besides, the Ratio IC50 in the series filed under Rattus norvegicus [7] amounted to 49.
Consider `COC(=O)Cn1c(=O)oc2c(C(=O)/C=C/c3ccc(O)c(F)c3)cccc21`, for which the logD at 24 h in series [1] was determined as 1.31. The values for the half-maximal inhibitory concentration (IC50) in series [2], in [6] and in series [9] were 57.2 µM, above 100 µM and 0.518 µM, respectively. Besides, the Activity amounted to 25.4% in the series on Brain [3]; 5.09% in series [4]; 19.2% in series [5]; 40.1% in series [8]; 40.1% in the series on Brain [10]. In the series listed under Rattus norvegicus [7], the Ratio IC50 is above 193.
Take `COc1cc(/C=C/C(=O)c2cccc3[nH]c(=O)oc23)ccc1O`: the IC50 in series [6] and in series [9] was above 100 µM each time.
In the case of `COc1ccc(/C=C/C(=O)c2cccc3[nH]c(=O)oc23)cc1`, the half-inhibitory concentration (IC50) in series [6] and in series [9] was above 100 µM each time.
`COC(=O)Cn1c(=O)oc2c(/C=C/c3ccc(O)cc3)cccc21`: the IC50 in [9] amounted to 11.7 µM.
Same read-out and setting: then `COC(=O)Cn1c(=O)oc2ccc(/C=C/c3ccc(O)cc3)cc21`, with above 100 µM.
Turning to `O=C(/C=C/c1ccc(O)c(C(F)(F)F)c1)c1cccc2[nH]c(=O)oc12`, the IC50 in series [6] and in series [9] was above 100 µM each time.
For `COC(=O)Cn1c(=O)oc2c(C(=O)/C=C/c3ccc(O)c(Cl)c3)cccc21`, the IC50 in [6] was above 100 µM; in series [9] it was 12.2 µM. Besides, the Ratio IC50 in the series filed under Rattus norvegicus [7] was above 8.82.
In the case of `COC(=O)Cn1c(=O)oc2c(C(=O)/C=C/c3ccc(O)c(OC)c3)cccc21`, the Activity in the series on Brain [3] stood at 43%; in series [13], 25.4%; in series [4] it was 50.3%; in series [5] it was 82.2%; in series [8], 92.4%; in the series with Brain [14], 23.6%. Further, the Activity was 14.8% in [15] and 66.1% in the series on Brain [10]. In addition, the IC50 in series [6] is above 100 µM; in series [9], 13.2 µM. In the series filed under Rattus norvegicus [7], the Ratio IC50 is above 7.59.
`COC(=O)Cn1c(=O)oc2c(C(=O)/C=C/c3cc(F)c(O)c(F)c3)cccc21`: the logD at 24 h in series [1] came out at 1.07. Besides, the values for the IC50 in series [2], in series [6] and in series [9] were 71.2 µM, 7.84 µM and 0.111 µM, respectively. Further, the Activity is 20.9% with Brain [3]; 9.1% in series [4]; 35% in [5]; 52.9% in series [8]; 28% in the series on Brain [10]. In addition, in the series filed under Rattus norvegicus [7], the Ratio IC50 is 70.7.
With `COC(=O)Cn1c(=O)oc2c(C(=O)/C=C/c3ccc(O)cc3OC)cccc21`, the IC50 in [6] was above 100 µM; in series [9] it was 0.826 µM. In addition, the Ratio IC50 in the series listed under Rattus norvegicus [7] was above 121.
Consider `O=C(/C=C/c1cccc(O)c1)c1cccc2[nH]c(=O)oc12`, for which the IC50 in series [6] and in series [9] was above 100 µM in each case.
Take `COC(=O)Cn1c(=O)oc2cc(/C=C/c3ccc(O)cc3)ccc21`: in [9], the IC50 was found to be 72.2 µM.
Regarding `COC(=O)Cn1c(=O)oc2c(C(=O)/C=C/c3ccc(O)cc3)cccc21`, the logD at 24 h in series [1] came out at 1.46. In addition, the IC50 in series [2] is 55.4 µM; in series [6], above 100 µM; in series [9] it was 0.226 µM. Moreover, the Activity turned out to be 24.1% in the series with Brain [3]; 10.6% in series [4]; 30% in series [5]; 46.3% in [8]; 38% in the series with Brain [10]. For the same compound, the Ratio IC50 in the series filed under Rattus norvegicus [7] was above 415.
Turning to `Cc1c(C)c2c(c(C)c1O)CCC(C)(C(=O)O)O2` (stereo unspecified), the Activity in the series with Brain [3] was 47.5%; in series [13], 46.7%; in series [4], 86.3%; in the series with Brain [16], 3.39%; in the series with Brain [14] it was 31.9%; in the series on Brain [17], 15.5%. The Activity in series [15] was determined as 8.63%; in the series with Brain [10], 79.2%.
For `COC(=O)Cn1c(=O)oc2c(C(=O)/C=C/c3cccc(O)c3)cccc21`, the IC50 in series [6] and in series [9] was above 100 µM each time.
Regarding `O=c1[nH]c2cccc(/C=C/c3ccc(O)cc3)c2o1`, the IC50 in series [9] turned out to be 495 µM.
On to `O=C(/C=C/c1ccc(O)cc1)c1cccc2[nH]c(=O)oc12`, for which the IC50 is 104 µM in [2], above 100 µM in series [6] and 2.85 µM in series [9]. For the same compound, the Ratio IC50 in the series filed under Rattus norvegicus [7] was above 35.1.
Take `O=C(/C=C/c1ccc(O)c(O)c1)c1cccc2[nH]c(=O)oc12`: the values for the IC50 in [2], in [6] and in [9] were 63.7 µM, 2.12 µM and 3.54 µM, respectively. In addition, the Ratio IC50 in the series filed under Rattus norvegicus [7] came out at 0.595.
`COc1cc(O)ccc1/C=C/C(=O)c1cccc2[nH]c(=O)oc12`: the values for the IC50 in series [6] and in series [9] were above 100 µM and 16.7 µM, respectively. For the same compound, the Ratio IC50 in the series listed under Rattus norvegicus [7] was above 5.98.
In the case of `CC(C)=CCn1c(=O)oc2c(C(=O)/C=C/c3ccc(O)c(F)c3)cccc21`, in series [1], the logD at 24 h is 1.64. In addition, the figures for the IC50 in series [2], in series [6] and in [9] were 52.1 µM, above 100 µM and 0.517 µM, respectively. Further, the Activity in the series on Brain [3] is 22.4%; in [4], 12.7%; in [5], 32.5%; in series [8], 53.8%; in the series on Brain [10] it was 33.3%. In addition, the Ratio IC50 in the series listed under Rattus norvegicus [7] is above 193.
As for `COC(=O)Cn1c(=O)oc2c(C(=O)/C=C/c3ccc(O)c(C(F)(F)F)c3)cccc21`, the results for the IC50 in [6] and in [9] were above 100 µM and 56.1 µM, respectively. In addition, the Ratio IC50 in the series listed under Rattus norvegicus [7] was above 1.78.
